Experimental data reported in patent US20210292340A1, “CELL NECROSIS INHIBITOR, PREPARATION METHOD THEREFOR AND USE THEREOF” (SHANGHAI INSTITUTE OF ORGANIC CHEMISTRY, CHINESE ACADEMY OF …, priority 2018, published 2021).

System: Jurkat (FADD−/−) cells
Test: Inhibition of TNF-induced programmed Jurkat (FADD−/−) cell necrosis (Cell Titer-Glo)
Type: cell-based, human
Conditions: Homo sapiens, Jurkat, 20 h, TNF 10 ng/mL, intracellular ATP level, read-out: Cellular IC50 (M) Jurkat (FADD−/−)
Procedure: Two replicate wells were set for each concentration of each compound.
Jurkat (FADD^−/−) cells (human-derived peripheral blood leukemia T cell line, with FADD gene knocked out) were cultured in vitro. After growing to logarithmic growth phase, the cells were harvested, and centrifuged at 1000 rpm for 5 min. The supernatant was discarded, and the cells were resuspended in fresh medium and adjusted to a cell density of 5×10^5/mL. The cell suspension was added to the culture plate containing the drug (40 μL per well). In the treatment groups, 10 μL of TNF (tumor necrosis factor, final concentration 10 ng/mL) diluted with the cell culture medium was added to each well, and incubated for 20 h in a cell incubator (37° C., 5% CO2). Subsequently, 50 μL of Cell Titer-Glo solution was added to each well and incubated at room temperature for 10 min. Then, the luminescence was detected on BioTek plate reader to measure the intracellular ATP level. The effect of the test compounds in inhibiting TNF-induced cell necrosis was calculated from the full-activity well and background well (with the untreated DMSO control well as 100% cell viability), and the half inhibitory concentration (IC50) of the compound was calculated by Graphpad Prism statistical software.

Compound | IC50 [M]
COc1ncnc2cc3c(cc12)N(C)C(=O)[C@@H](NC(=O)c1n[nH]c(Cc2ccc(F)cc2)n1)CO3 [RIP1-158] | 8e-09
CN1C(=O)[C@@H](NC(=O)c2cc(Cc3ccccc3)on2)CSc2ccc3ncccc3c21 [RIP1-096] | 1.38e-09
CN1C(=O)[C@@H](NC(=O)c2ccc(Nc3ccccc3)cn2)COc2ccc3ncccc3c21 [RIP1-201] | > 2e-05
CN1C(=O)[C@@H](NC(=O)c2n[nH]c(Cc3cccc(F)c3)n2)COc2ccc3ncccc3c21 [RIP1-172] | 5e-09
CN1C(=O)[C@@H](NC(=O)c2nnc(Cc3ccccc3)[nH]2)COc2cc3[nH]nnc3cc21 [RIP1-143] | 2.06e-07
CN1C(=O)[C@@H](NC(=O)c2cn(Cc3ccccc3)nn2)CSc2cc3occc3cc21 [RIP1-040] | 3.6e-10
CN1C(=O)[C@@H](NC(=O)c2cc(Cc3ccccc3)ccn2)COc2cc3ncoc3cc21 [RIP1-221] | 7.31e-09
CN1C(=O)[C@@H](NC(=O)c2n[nH]c(Cc3ccc(F)cc3)n2)COc2ccc3cnccc3c21 [RIP1-164] | 3.3e-09
CN1C(=O)[C@@H](NC(=O)c2nnn(Cc3ccccc3)n2)COc2cc3[nH]c(=O)[nH]c3cc21 [RIP1-075] | 4.73e-10
CN1C(=O)[C@@H](NC(=O)c2cn(Cc3ccccc3)nn2)CSc2cc3c(ccn3Cc3ccccc3)cc21 [RIP1-084] | > 2e-06
COc1ncnc2cc3c(cc12)N(C)C(=O)[C@@H](NC(=O)c1cc(Oc2ccccc2)ccn1)CO3 [RIP1-175] | 1.46e-09
CN1C(=O)[C@@H](NC(=O)c2nnc(Cc3ccccc3)[nH]2)CSc2ccc3ncccc3c21 [RIP1-092] | 1.05e-09
CN1C(=O)[C@@H](NC(=O)c2cn(Cc3ccccc3)nn2)CSc2cc3c(ccn3C)cc21 [RIP1-048] | 5.1e-09
CN1C(=O)[C@@H](NC(=O)c2n[nH]c(Cc3ccccc3)n2)COc2ccccc21 [GSK2982772, reference compound] | 9.7e-10
Cc1nc2cc3c(cc2[nH]1)OC[C@H](NC(=O)c1nnc(Cc2ccccc2)o1)C(=O)N3C [RIP1-070] | 2.15e-06
CN1C(=O)[C@@H](NC(=O)c2n[nH]c(Cc3ccccc3F)n2)COc2cc3nccnc3cc21 [RIP1-208] | 1.49e-09
CN1C(=O)[C@@H](NC(=O)c2n[nH]c(Cc3c(F)cc(F)cc3F)n2)COc2ccc3cnccc3c21 [RIP1-162] | 5.4e-08
CN1C(=O)[C@@H](NC(=O)c2n[nH]c(Cc3ccccc3)n2)COc2cc3ncoc3cc21 [RIP1-182] | 8.16e-10
CN1C(=O)[C@@H](NC(=O)c2cc(Oc3ccccc3)ccn2)COc2cc3[nH]ccc3cc21 [RIP1-189] | 1.93e-10
CN1C(=O)[C@@H](NC(=O)c2cnn(Cc3ccccc3)c2)COc2cc3[nH]c(=O)[nH]c3cc21 [RIP1-074] | > 2e-06
Cc1nc2cc3c(cc2[nH]1)OC[C@H](NC(=O)c1coc(Cc2ccccc2)n1)C(=O)N3C [RIP1-065] | > 2e-06
CN1C(=O)[C@@H](NC(=O)c2cn(Cc3ccccc3)nn2)CSc2cc3[nH]ncc3cc21 [RIP1-019] | 6.8e-10
CN1C(=O)[C@@H](NC(=O)c2nnc(Cc3ccccc3)o2)CSc2cc3[nH]ccc3cc21 [RIP1-041] | 3.79e-10
CN1C(=O)[C@@H](NC(=O)c2cc(Oc3c(F)cccc3F)ccn2)COc2ccc3ncccc3c21 [RIP1-198] | 4.57e-09

Compound | IC50 [M]
CN1C(=O)[C@@H](NC(=O)c2cc(Cc3ccccc3)on2)CSc2cc3c(ccn3C)cc21 [RIP1-009] | 1.08e-09
CN1C(=O)[C@@H](NC(=O)c2cc(Cc3ccccc3)on2)COc2cc3[nH]ccc3cc21 [RIP1-116] | 5.16e-09
CN1C(=O)[C@@H](NC(=O)c2nnc(Cc3ccccc3F)[nH]2)COc2cc3ocnc3cc21 [RIP1-219] | 6.75e-10
CN1C(=O)[C@@H](NC(=O)c2ncn(Cc3ccccc3)n2)CSc2cc3c(ccn3C)cc21 [RIP1-012] | 1.22e-09
CN1C(=O)[C@@H](NC(=O)c2n[nH]c(Cc3c(F)cccc3F)n2)COc2ccc3ncccc3c21 [RIP1-168] | 1.1e-08
CN1C(=O)[C@@H](NC(=O)c2cc(Cc3ccccc3)on2)COc2cc3[nH]c(C(F)(F)F)nc3cc21 [RIP1-077] | 1.68e-08
CN1C(=O)[C@@H](NC(=O)c2cc(Oc3cccnc3)ccn2)COc2cc3ncoc3cc21 [RIP1-212] | 1.81e-08
CN1C(=O)[C@@H](NC(=O)c2cc(Oc3cc(F)cc(F)c3)ccn2)COc2ccc3ncccc3c21 [RIP1-205] | 7.11e-09
CN1C(=O)[C@@H](NC(=O)c2cn(Cc3ccccc3)cn2)CSc2cc3c(ccn3C)cc21 [RIP1-055] | 2.29e-09
CN1C(=O)[C@@H](NC(=O)c2n[nH]c(Cc3ccccc3F)n2)COc2cc3ncoc3cc21 [RIP1-206] | 8.18e-10
CN1C(=O)[C@@H](NC(=O)c2cccc(Cc3ccccc3)c2)CSc2cc3c(ccn3C)cc21 [RIP1-011] | 3.24e-07
CN1C(=O)[C@@H](NC(=O)c2cccc(Cc3ccccc3)c2)CSc2cc3[nH]ccc3cc21 [RIP1-007] | 3.4e-07
CN1C(=O)[C@@H](NC(=O)c2cc(Oc3ccccc3)ccn2)COc2cc3occc3cc21 [RIP1-180] | 2.66e-10
CN1C(=O)[C@@H](NC(=O)c2cnn(Cc3ccccc3)c2)CSc2cc3[nH]ncc3cc21 [RIP1-014] | 2.6e-08
CN1C(=O)[C@@H](NC(=O)c2cc(Oc3ccccc3)ccn2)COc2cc3ncnc(O)c3cc21 [RIP1-188] | 1.93e-07
CN1C(=O)[C@@H](NC(=O)c2ncn(Cc3ccccc3)n2)CSc2cc3occc3cc21 [RIP1-037] | 1.29e-10
CN1C(=O)[C@@H](NC(=O)c2cnc(Cc3ccccc3)o2)COc2cc3[nH]c(C(F)(F)F)nc3cc21 [RIP1-079] | > 2e-06
CN1C(=O)[C@@H](NC(=O)c2cn(Cc3ccccc3)cn2)CSc2ccc3ncccc3c21 [RIP1-094] | 2e-09
CN1C(=O)[C@@H](NC(=O)c2cnc(Cc3ccccc3)o2)CSc2cc3c(ccn3Cc3ccccc3)cc21 [RIP1-087] | > 2e-06
CN1C(=O)[C@@H](NC(=O)c2ccnc(Oc3ccccc3)c2)COc2ccc3ncccc3c21 [RIP1-195] | 5.66e-06
CN1C(=O)[C@@H](NC(=O)c2cn(Cc3ccccc3)nn2)COc2cc3[nH]ccc3cc21 [RIP1-115] | 3.48e-09
CN1C(=O)[C@@H](NC(=O)c2ccc(Oc3ccccc3)cn2)COc2ccc3ncccc3c21 [RIP1-196] | > 2e-05
CN1C(=O)[C@@H](NC(=O)c2cn(Cc3ccccc3)cn2)COc2cc3[nH]ncc3cc21 [RIP1-022] | 5.66e-10
CN1C(=O)[C@@H](NC(=O)c2cc(Cc3ccccc3)on2)CSc2cc3[nH]nc(Cl)c3cc21 [RIP1-029] | 1.2e-10

Compound | IC50 [M]
CN1C(=O)[C@@H](NC(=O)c2cn(Cc3ccccc3)nn2)COc2cc3[nH]ncc3cc21 [RIP1-024] | 2.03e-09
CN1C(=O)[C@H](NC(=O)c2cnn(Cc3ccccc3)c2)COc2cc3c(ccn3C)cc21 [RIP1-082] | > 2e-06
CN1C(=O)[C@@H](NC(=O)c2n[nH]c(Cc3c(F)cccc3F)n2)COc2ccc3cnccc3c21 [RIP1-161] | 8.6e-09
CN1C(=O)[C@@H](NC(=O)c2cn(Cc3ccccc3)cn2)CSc2ccc3cnccc3c21 [RIP1-104] | 7.4e-10
CN1C(=O)[C@@H](NC(=O)c2nc(Cc3ccccc3)n(C)n2)COc2cc3ncoc3cc21 [RIP1-220] | > 2e-05
CN1C(=O)[C@@H](NC(=O)c2cn(Cc3ccccc3)nn2)CSc2cc3[nH]ccc3cc21 [RIP1-042] | 1.93e-09
CN1C(=O)[C@@H](NC(=O)c2n[nH]c(Cc3ccccc3)n2)CSc2cc3[nH]ncc3cc21 [RIP1-013] | 5.3e-10
CN1C(=O)[C@@H](NC(=O)c2cncn2Cc2ccccc2)CSc2cc3[nH]ncc3cc21 [RIP1-017] | > 2e-06
CN1C(=O)[C@@H](NC(=O)c2n[nH]c(Cc3c(F)cc(F)cc3F)n2)COc2ccc3ncccc3c21 [RIP1-169] | 1.13e-07
Cc1nc2cc3c(cc2[nH]1)OC[C@H](NC(=O)c1cnnn1Cc1ccccc1)C(=O)N3C [RIP1-064] | > 2e-06
CN1C(=O)[C@@H](NC(=O)c2n[nH]c(Cc3c(F)cccc3F)n2)COc2cc3ncoc3cc21 [RIP1-183] | 6.15e-09
CN1C(=O)[C@@H](NC(=O)c2n[nH]c(Cc3ccc(F)cc3)n2)COc2cc3occc3cc21 [RIP1-174] | 1.3e-08
Cc1nc2cc3c(cc2[nH]1)OC[C@H](NC(=O)c1nnn(Cc2ccccc2)n1)C(=O)N3C [RIP1-071] | 1.71e-08
CN1C(=O)[C@@H](NC(=O)c2cnn(Cc3ccccc3)c2)CSc2cc3c(ccn3Cc3ccccc3)cc21 [RIP1-083] | > 2e-06
CN1C(=O)[C@@H](NC(=O)c2n[nH]c(Cc3c(F)cc(F)cc3F)n2)COc2cc3ncoc3cc21 [RIP1-184] | 3.76e-08
CN1C(=O)[C@@H](NC(=O)c2cc(Cc3ccccc3)on2)CSc2ccc3cnccc3c21 [RIP1-106] | 7.47e-10
CN1C(=O)[C@@H](NC(=O)c2cc(Oc3ccc(F)cc3)ccn2)COc2ccc3ncccc3c21 [RIP1-197] | 2.92e-08
CN1C(=O)[C@@H](NC(=O)c2cn(Cc3ccccc3)cn2)COc2cc3nccnc3cc21 [RIP1-129] | 7.94e-07
CN1C(=O)[C@@H](NC(=O)c2cn(Cc3ccccc3)cn2)COc2cc3[nH]ccc3cc21 [RIP1-114] | 8.46e-10
CN1C(=O)[C@@H](NC(=O)c2n[nH]c(Cc3cccc(F)c3)n2)COc2cc3ncoc3cc21 [RIP1-222] | 5.62e-09
Cc1nc2cc3c(cc2[nH]1)OC[C@H](NC(=O)c1cn(Cc2ccccc2)nn1)C(=O)N3C [RIP1-063] | 4.57e-08
CN1C(=O)[C@@H](NC(=O)c2nnc(Cc3ccccc3)[nH]2)CSc2ccc3cnccc3c21 [RIP1-102] | 9e-10
CN1C(=O)[C@@H](NC(=O)c2cnc(Cc3ccccc3)[nH]2)CSc2cc3[nH]ccc3cc21 [RIP1-047] | 2.15e-08
